PubChem BioAssay AID248 (DTP/NCI, 2004)
“And” between values parts separate entries of the source, which are not always exact repeats. Equal entries are not always repeated. Toxic doses and inconclusive results are not listed. Cut-off read from the data, not from the text of the source: active = T/C of 150% or more; inactive = T/C below 125%.

Tested on: L1210 leukemia ip in BDF1 mice, survival T/C
Experiment: NCI In Vivo Anticancer Drug Screen. Data for tumor model L1210 Leukemia (intraperitoneal) in B6D2F1 (BDF1) mice
Settings: endpoint: mean survival time, higher = longer survival
Outline: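 Read-out is survival time, reported as the treated-group measurement over the vehicle-control measurement.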

[1] = dose: 100.0 mg/kg/injection, schedule: Q01DX001 (ip), vehicle: Klucel (hydroxypropylcellulose) (HPC)
[2] = dose: 100.0 mg/kg/injection, schedule: Q01DX009 (ip), vehicle: saline with Tween-80
[3] = dose: 200.0 mg/kg/injection, schedule: Q01DX009 (ip), vehicle: saline with Tween-80
[4] = dose: 400.0 mg/kg/injection, schedule: Q01DX009 (ip), vehicle: saline with Tween-80
[5] = dose: 100.0 mg/kg/injection, schedule: Q04DX003 (ip), vehicle: Klucel (hydroxypropylcellulose) (HPC)
[6] = dose: 200.0 mg/kg/injection, schedule: Q04DX003 (ip), vehicle: Klucel (hydroxypropylcellulose) (HPC)
[7] = dose: 400.0 mg/kg/injection, schedule: Q04DX003 (ip), vehicle: Klucel (hydroxypropylcellulose) (HPC)
[8] = dose: 150.0 mg/kg/injection, schedule: Q01DX001 (ip), vehicle: saline
[9] = dose: 100.0 mg/kg/injection, schedule: Q01DX009 (ip), vehicle: Klucel (hydroxypropylcellulose) (HPC)
[10] = dose: 200.0 mg/kg/injection, schedule: Q01DX009 (ip), vehicle: Klucel (hydroxypropylcellulose) (HPC)
[11] = dose: 400.0 mg/kg/injection, schedule: Q01DX009 (ip), vehicle: Klucel (hydroxypropylcellulose) (HPC)
[12] = dose: 100.0 mg/kg/injection, schedule: Q04DX002 (ip), vehicle: Klucel (hydroxypropylcellulose) (HPC)
[13] = dose: 200.0 mg/kg/injection, schedule: Q04DX002 (ip), vehicle: Klucel (hydroxypropylcellulose) (HPC)
[14] = dose: 100.0 mg/kg/injection, schedule: Q01DX009 (ip), vehicle: saline
[15] = dose: 200.0 mg/kg/injection, schedule: Q01DX009 (ip), vehicle: saline
[16] = dose: 400.0 mg/kg/injection, schedule: Q01DX009 (ip), vehicle: saline
[17] = dose: 400.0 mg/kg/injection, schedule: Q04DX002 (ip), vehicle: Klucel (hydroxypropylcellulose) (HPC)
[18] = dose: 100.0 mg/kg/injection, schedule: Q01DX001 (ip), vehicle: saline
[19] = dose: 25.0 mg/kg/injection, schedule: Q04DX003 (ip), vehicle: Klucel (hydroxypropylcellulose) (HPC)
[20] = dose: 50.0 mg/kg/injection, schedule: Q04DX003 (ip), vehicle: Klucel (hydroxypropylcellulose) (HPC)

Measured: T/C

O=Nc1ccc(O)cc1Br
inactive: [1] 100 % of control | dose: 200.0 mg/kg/injection, schedule: Q01DX001 (ip), vehicle: Klucel (hydroxypropylcellulose) (HPC) 97 % of control | dose: 400.0 mg/kg/injection, schedule: Q01DX001 (ip), vehicle: Klucel (hydroxypropylcellulose) (HPC) 100 % of control and 92 % of control

O=S(=O)(Nc1ccc(NS(=O)(=O)c2ccccc2)c2ccccc12)c1ccccc1
inactive: [2] 87 % of control | [3] 92 % of control | [4] 92 % of control

COc1cc(C(=O)NCCBr)cc(OC)c1OC
inactive: dose: 100.0 mg/kg/injection, schedule: Q04DX003 (ip), vehicle: saline 107 % of control | dose: 200.0 mg/kg/injection, schedule: Q04DX003 (ip), vehicle: saline 108 % of control | dose: 400.0 mg/kg/injection, schedule: Q04DX003 (ip), vehicle: saline 103 % of control

Cc1cc([N+](=O)[O-])c(C)cc1Cl
inactive: dose: 100.0 mg/kg/injection, schedule: Q01DX009 (ip), vehicle: saline sonified 98 % of control | [5] 98 % of control | dose: 200.0 mg/kg/injection, schedule: Q01DX009 (ip), vehicle: saline sonified 100 % of control | [6] 98 % of control | dose: 400.0 mg/kg/injection, schedule: Q01DX009 (ip), vehicle: saline sonified 100 % of control | [7] 98 % of control

Clc1ccc(CNc2ccccn2)s1
inactive: [8] 88 % of control

CC(Cc1ccccc1)Nc1ccccn1 (configuration not stated)
inactive: dose: 75.0 mg/kg/injection, schedule: Q01DX001 (ip), vehicle: other 97 % of control | dose: 150.0 mg/kg/injection, schedule: Q01DX001 (ip), vehicle: other 97 % of control | dose: 300.0 mg/kg/injection, schedule: Q01DX001 (ip), vehicle: other 95 % of control

C/C(=C\C(=O)/C=C(\C)NCc1ccccc1)NCc1ccccc1
inactive: [5] 98 % of control | [6] 100 % of control | [7] 93 % of control

O=S(=O)(Nc1ccc(C(F)(F)F)cc1)c1ccc(C(F)(F)F)cc1
inactive: [5] 95 % of control | [6] 92 % of control

Nc1cccc(-c2nc3[nH]ncc3c(=O)[nH]2)c1
inactive: dose: 25.0 mg/kg/injection, schedule: Q01DX001 (ip), vehicle: Klucel (hydroxypropylcellulose) (HPC) 100 % of control | dose: 50.0 mg/kg/injection, schedule: Q01DX001 (ip), vehicle: Klucel (hydroxypropylcellulose) (HPC) 98 % of control | [1] 93 % of control

CC1(c2ccccc2)NC(=O)N(CCC#N)C1=O (configuration not stated)
inactive: dose: 100.0 mg/kg/injection, schedule: Q04DX003 (ip), vehicle: acetone 100 % of control | dose: 200.0 mg/kg/injection, schedule: Q04DX003 (ip), vehicle: acetone 90 % of control | dose: 400.0 mg/kg/injection, schedule: Q04DX003 (ip), vehicle: acetone 104 % of control

CCOc1ccccc1NC(=O)CC(C)=O
inactive: [9] 89 % of control | [10] 88 % of control | [11] 93 % of control

O=C(C1CC1c1ccccc1)N1CCN(c2ccccc2)CC1 (configuration not stated)
inactive: [9] 98 % of control | [10] 90 % of control | [11] 100 % of control

CC(=O)c1ccc(N=C2C=CC(=O)O2)cc1
inactive: [2] 104 % of control | [3] 105 % of control | [4] 100 % of control

C/C(=N/N=C(N)N)c1cccc(O)c1
inactive: dose: 15.0 mg/kg/injection, schedule: Q01DX Z (ip), vehicle: methylcellulose (MC) 107 % of control | dose: 30.0 mg/kg/injection, schedule: Q01DX Z (ip), vehicle: methylcellulose (MC) 110 % of control | dose: 30.0 mg/kg/injection, schedule: Q01DX Z (oral), vehicle: methylcellulose (MC) 89 % of control | dose: 60.0 mg/kg/injection, schedule: Q01DX Z (ip), vehicle: methylcellulose (MC) 97 % of control

COc1ccc(Cl)cc1/C=C\C=N\NC(=O)C[N+](C)(C)C
inactive: dose: 15.0 mg/kg/injection, schedule: Q01DX001 (ip), vehicle: carboxymethylcellulose (CMC) 95 % of control | dose: 30.0 mg/kg/injection, schedule: Q01DX001 (ip), vehicle: carboxymethylcellulose (CMC) 93 % of control

Nc1ccc(-c2ccc(N)c(Br)c2)cc1Br
inactive: [12] 99 % of control | [13] 93 % of control

O=C1OC(=O)c2c(Br)c(Br)c(Br)c(Br)c21
inactive: [14] 103 % of control | [15] 97 % of control | [16] 107 % of control

CCCCCCCCCCCCCCCCCC(=O)OC(C(O)C=O)C(O)C(O)CO (configuration not stated)
inactive: [12] 95 % of control | [13] 109 % of control | [17] 95 % of control

ClC(c1ccccc1)C(Cl)c1ccccc1 (configuration not stated)
inactive: dose: 50.0 mg/kg/injection, schedule: Q01DX001 (ip), vehicle: carboxymethylcellulose (CMC) 101 % of control | dose: 75.0 mg/kg/injection, schedule: Q04DX002 (ip), vehicle: Klucel (hydroxypropylcellulose) (HPC) 109 % of control | dose: 100.0 mg/kg/injection, schedule: Q01DX001 (ip), vehicle: carboxymethylcellulose (CMC) 106 % of control | dose: 150.0 mg/kg/injection, schedule: Q04DX002 (ip), vehicle: Klucel (hydroxypropylcellulose) (HPC) 95 % of control | dose: 200.0 mg/kg/injection, schedule: Q01DX001 (ip), vehicle: carboxymethylcellulose (CMC) 101 % of control | dose: 300.0 mg/kg/injection, schedule: Q04DX002 (ip), vehicle: Klucel (hydroxypropylcellulose) (HPC) 92 % of control | dose: 400.0 mg/kg/injection, schedule: Q01DX001 (ip), vehicle: carboxymethylcellulose (CMC) 101 % of control

C(=N\Nc1nc2ccccc2s1)/c1ccc(/C=N/Nc2nc3ccccc3s2)cc1
inactive: [9] 96 % of control | [10] 96 % of control | [11] 104 % of control

COc1cc(Cl)ccc1NC(=O)Oc1ccc(NC(C)=O)cc1
inactive: [14] 110 % of control | [15] 92 % of control | [16] 103 % of control

COC(=O)c1ccc(C)cn1
inactive: [18] 100 % of control

CC1(C)N=C(N)N=C(N)N1c1cc(Cl)cc(CCCCc2ccc(S(=O)(=O)F)cc2)c1
inactive: [19] 109 % of control | [20] 112 % of control | [5] 107 % of control and 118 % of control

O=S(=O)(C(Br)Br)C(Br)c1ccccc1 (configuration not stated)
inactive: [18] 93 % of control | dose: 200.0 mg/kg/injection, schedule: Q01DX001 (ip), vehicle: saline 101 % of control | dose: 400.0 mg/kg/injection, schedule: Q01DX001 (ip), vehicle: saline 87 % of control

CC(=C(C#N)C#N)c1ccccc1
inactive: dose: 12.5 mg/kg/injection, schedule: Q04DX003 (ip), vehicle: saline with Tween-80 95 % of control | dose: 25.0 mg/kg/injection, schedule: Q04DX003 (ip), vehicle: saline with Tween-80 94 % of control | dose: 50.0 mg/kg/injection, schedule: Q04DX003 (ip), vehicle: saline with Tween-80 89 % of control

CN(C1CCCCC1)C1CCCCC1
inactive: dose: 6.25 mg/kg/injection, schedule: Q01DX009 (ip), vehicle: Klucel (hydroxypropylcellulose) (HPC) 100 % of control | dose: 12.5 mg/kg/injection, schedule: Q01DX009 (ip), vehicle: Klucel (hydroxypropylcellulose) (HPC) 91 % of control | dose: 25.0 mg/kg/injection, schedule: Q01DX009 (ip), vehicle: Klucel (hydroxypropylcellulose) (HPC) 96 % of control and 107 % of control | [19] 97 % of control | [20] 102 % of control | dose: 75.0 mg/kg/injection, schedule: Q01DX001 (ip), vehicle: saline 108 % of control | [5] 97 % of control | [8] 109 % of control

NC(=O)COc1ncc(Cl)cc1Cl
inactive: [12] 96 % of control | [13] 101 % of control | [17] 104 % of control

CCc1ccc(NC(=S)Nc2ccccc2)cc1
inactive: dose: 100.0 mg/kg/injection, schedule: Q04DX002 (ip), vehicle: other 108 % of control | dose: 200.0 mg/kg/injection, schedule: Q04DX002 (ip), vehicle: other 90 % of control

CSc1cccc(NC(=O)/C=C/C(=O)O)c1
inactive: dose: 75.0 mg/kg/injection, schedule: Q01DX009 (ip), vehicle: Klucel (hydroxypropylcellulose) (HPC) 98 % of control | dose: 150.0 mg/kg/injection, schedule: Q01DX009 (ip), vehicle: Klucel (hydroxypropylcellulose) (HPC) 93 % of control | dose: 300.0 mg/kg/injection, schedule: Q01DX009 (ip), vehicle: Klucel (hydroxypropylcellulose) (HPC) 93 % of control
